Data on five molecules can be found in publication PMC8869097, “Benzothiazole Derivatives as Multifunctional Antioxidant Agents for Skin Damage: Structure–Activity Relationship of a Scaffold Bearing a Five-Membered Ring System” (Antioxidants, 2022).

Assay [1] can be described thus: In vitro DPPH test. As to conditions: for DPPH (% Inhibition): compounds at 1 mg/mL, 30 min, 517 nm.
Assay [2] in a line: Ferric Reducing Antioxidant Power assay (FRAP). As to conditions: 593 nm.
In assay [3] the test system is Trichophyton tonsurans. In words: Antidermatophyte activity, plaque growth inhibition. It is filed as cell-based, Trichophyton tonsurans CBS 483.76. As to conditions: 100 μg/mL, SDA, read-out: % Inhibition Growth T. tonsurans. On the procedure: (§1) The dermatophytes used in this study were Epidermophyton floccosum var. floccosum (Netherlands) CBS 358.93 strain, Trichophyton tonsurans (Netherlands) CBS 483.76 strain, Trichophyton mentagrophytes (Netherlands) CBS 160.66 strain, Microsporum canis (Iran) CBS 131,110 strain, and Microsporum gypseum (Iran) CBS 130,948 strain. All dermatophytes were maintained at 4 °C as agar slants on SDA. Candida albicans (ATCC 10231) was maintained at 4 °C on SDA plate.
(§2) The in vitro antifungal activity against the five selected dermatophytes was evaluated, as previously described, using the plaque growth inhibition method. All compounds were evaluated at the final concentration of 100 µg/mL. The percentages of growth inhibition according to Equation (5) were calculated as the average of three different experiments. I = [(C − T)/C] × 100%,(5) where I is the percentage value of growth inhibition, C is the measure of the diameter of the control circular mycelial inoculum (mm) and T is the extended diameter of the treated mycelial inoculum (mm).
(§3) All synthesized benzothiazole derivatives were evaluated to evaluate their in vitro antifungal activity against the five pathogenic dermatophytes that cause the most common dermatomycoses: Microsporum gypseum, Microsporum canis, Trichophyton mentagrophytes, Trichophyton tonsurans and Epidermophyton floccosum. All compounds were tested at a concentration of 100 µg/mL in DMSO, to evaluate the ability to inhibit the growth of dermatophyte cultures in Sabouraud Dextrose Agar (SDA). Briefly, room temperature incubation was performed and dermatophyte inhibition assessed by measuring the colony diameter at each disc for 7 days. The results are shown in Table 3 and were determined as the average of three different experiments.

For assay [4], the system named is Epidermophyton floccosum. Described as above. As to conditions: 100 μg/mL, SDA, read-out: % Inhibition Growth E. floccosum. It is filed as cell-based, Epidermophyton floccosum var. floccosum CBS 358.93. On the procedure:
as §1, §2, §3

For assay [5], the system named is CEM cells. In words: Antiproliferative activity. It is filed as cell-based. As to conditions: Homo sapiens, CCRF-CEM. On the procedure: (§4) Human cervical carcinoma (HeLa) and human CD4+T-lymphoblast (CEM) cells were obtained from ATCC (Middlesex, UK). Human pancreatic carcinoma (Mia-Paca 2) cells were kindly provided by Prof. Anna Karlsson (Karolinska Institute, Stockholm, Sweden). All cell lines were grown in Dulbecco’s modified Eagle’s medium (DMEM; Gibco, Carlsbad, CA, USA), supplemented with 10% fetal bovine serum (FBS, Gibso), 0.01M Hepes (Gibco) and 1 mM sodium pyruvate (Gibco) in a humidified 5% CO2 incubator at 37 °C.
(§5) The cell suspensions of CEM, HeLa and Mia-Paca2 were treated with increasing concentrations of the selected compounds, following the protocol previously reported.
(§6) A stock solution of the compounds (20 mM in DMSO) was prepared and stored at −18 °C. Then, the compounds were diluted in the cell culture medium and tested starting with the 100 µM concentration as the upper limit. The application of equation (6) allowed to obtain the values of IC50. C1 − [50 − N1%/N2% − N1%] − (C1 − C2),(6) where C1 is the concentration of the compound which inhibits cell proliferation by more than 50%; C2 is the concentration of the compound which inhibits cell proliferation below 50%; N1% represents the number of cells (expressed as a percentage of control without compound) obtained in the presence of C1 and N2% represents the number of cells (as a percentage of control without compound) obtained in the presence of C2.
(§7) Finally, the compounds of this series of benzothiazole derivatives were tested to evaluate their antiproliferative activity in vitro against human T-cell leukemia cell line (CEM), human cervical carcinoma cells (HeLa), human pancreas cancer cells (Mia Paca-2) and human melanoma cells (SK-Mel 5). Non-cancerous HEK293T cells (Normal Kidney Epithelial Cells) were chosen as a control for cytotoxicity and/or selectivity. The results obtained have been summarized in Table 5 (data shown only for the active compounds) and are expressed as IC50 values in μM. The selectivity index (SI) was also reported, determined by comparing the values of IC50 (μM) obtained on healthy cells (HEK 293) with that obtained on tumor cells (CEM, HeLa, Mia-Paca-2 and SK- Mel 5) (Table 5).

Assay [6] has as its system HeLa cells. In words: Antiproliferative activity. As to conditions: Homo sapiens. It is filed as cell-based. On the procedure:
as §4, §5, §6, §7

The test system of assay [7] is Mia-Paca2 cells. In words: Antiproliferative activity. In kind it is cell-based. As to conditions: Homo sapiens, MIA PaCa-2. On the procedure:
as §4, §5, §6, §7

In general, inhibition refers to the drop in the measured response relative to a control, in per cent. The IC50 is the concentration that inhibits the measured activity by half. A higher IC50 goes with weaker potency. `c1c[nH]c(-c2nc3ccccc3s2)c1` [Compound 8a, 2-(1H-Pyrrol-2-Yl)benzothiazole]: the “DPPH (% Inhibition)” value in assay [1] is recorded as 29.17 ± 1.05%. In addition, the FRAP in assay [2] is given as 329.85 ± 0.94 μmolTE/g. Also, the inhibition at 100 µg/mL worked out at 7.46 ± 0.05% in assay [3] and 26 ± 0.66% in assay [4]. Further, the figures for the IC50 in assay [5], in assay [6] and in assay [7] were more than 100 µM, 65 ± 2 µM and 87 ± 18 µM, respectively.

On to `c1coc(-c2nc3ccccc3s2)c1` [Compound 9a, 2-(Furan-2-Yl)benzothiazole], for which the “DPPH (% Inhibition)” value in assay [1] is 24.69 ± 0.14%. In addition, the FRAP in assay [2] is 72.34 ± 3.42 μmolTE/g. Moreover, the inhibition at 100 µg/mL stood at 57.9 ± 0.76% in assay [3] and 68.85 ± 0.54% in assay [4]. Besides, the IC50 was 41 ± 5 µM in assay [5], more than 100 µM in assay [6] and more than 100 µM in assay [7].

For `c1csc(-c2nc3ccccc3s2)c1` [Compound 10a, 2-(Thiophen-2-Yl)benzothiazole], the “DPPH (% Inhibition)” value in assay [1] stood at 85.00 ± 0.88%. Further, the FRAP in assay [2] was found to be 143.13 ± 3.84 μmolTE/g. The inhibition at 100 µg/mL in assay [3] was found to be 64.5 ± 0.92%; in assay [4], 54.1 ± 0.75%. In addition, the half-maximal inhibitory concentration (IC50) in assay [5] is 45 ± 3 µM; in assay [6], more than 100 µM; in assay [7], more than 100 µM.

Take `NS(=O)(=O)c1ccc2nc(-c3cccs3)sc2c1` [Compound 10c, 2-(Thiophen-2-Yl)benzothiazole-6-Sulfonamide]: the “DPPH (% Inhibition)” value in assay [1] worked out at 21.82 ± 0.06%. In addition, the FRAP in assay [2] amounted to 60.90 ± 1.87 μmolTE/g. Also, the inhibition at 100 µg/mL in assay [3] was 6.35 ± 0.02%; in assay [4] it was 10.7 ± 0.31%. Also, the IC50 in assay [5] is more than 100 µM; in assay [6], more than 100 µM; in assay [7], 13 ± 3 µM.

Take `c1c[nH]c(-c2nc3ccccc3[nH]2)c1` [Lead 10, reference compound]: the “DPPH IC50” value in assay [1] turned out to be 64 ± 3 µg/mL. For the same molecule, the “DPPH (% Inhibition)” value in assay [1] is reported as 70.00 ± 3.25%. Besides, the FRAP in assay [2] came out at 1085.57 ± 0.88 μmolTE/g. Further, the figures for the inhibition at 100 µg/mL in assay [3] and in assay [4] were 96.97 ± 0.62% and 102 ± 4.92%, respectively. Moreover, the results for the IC50 in assay [5], in assay [6] and in assay [7] were 14 ± 1 µM, 37 µM and 15 ± 9 µM, respectively.
